# Values joined by “and” are separate entries in the source; they are usually repeats but may differ in a detail not shown here. Equal entries are not always repeated. Where two headings read alike, the source gives them in different places.
# System: C. elegans
# [1] = Table S2, C. elegans SS assay, 110 μM, 0 h, averages of 4 data points
# [2] = Table S2, C. elegans SS assay, 110 μM, 24 h, averages of 4 data points
molecule,measurement,setting,value
Nc1ncnc2c1ncn2[C@H]1C[C@H](O)[C@@H](COP(=O)([O-])OP(=O)([O-])OP(=O)([O-])O)O1.[Na+].[Na+].[Na+],Percentage of motility inhibition 0 h,[1],21%
same,Percentage of motility inhibition 24 h,[2],0%
CC(=O)O[C@@H]1CC[C@@]2(C)[C@@H](CC[C@]3(C)[C@@H]2[C@H](O)C=C2[C@@H]4[C@@H](C)[C@H](C)CC[C@]4(C)CC[C@]23C)[C@@]1(C)C(=O)O,Percentage of motility inhibition 0 h,[1],24%
same,Percentage of motility inhibition 24 h,[2],23%
O=C(O)[C@@H]1C[C@@H](O)CN1,Percentage of motility inhibition 0 h,[1],11%
same,Percentage of motility inhibition 24 h,[2],0%
CC1(C)CC[C@]2(C(=O)O)CC[C@]3(C)C(=CC[C@@H]4[C@@]5(C)CC[C@H](O[C@@H]6O[C@H](C(=O)O)[C@@H](O)[C@H](O[C@@H]7OC[C@@H](O)[C@H](O)[C@H]7O[C@@H]7O[C@H](CO)[C@@H](O)[C@H](O)[C@H]7O)[C@H]6O)C(C)(C)[C@@H]5CC[C@]43C)[C@@H]2C1,Percentage of motility inhibition 0 h,[1],0%
same,Percentage of motility inhibition 24 h,[2],0%
O=c1c(O[C@@H]2O[C@H](CO)[C@@H](O)[C@H](O)[C@H]2O)c(-c2ccc(O)c(O)c2)oc2cc(O[C@@H]3O[C@H](CO[C@@H]4O[C@H](CO)[C@@H](O)[C@H](O)[C@H]4O)[C@@H](O)[C@H](O)[C@H]3O)cc(O)c12,Percentage of motility inhibition 0 h,110 µM,0%
same,Percentage of motility inhibition 24 h,110 µM,0%
CN[C@@H]1[C@H](O)[C@H](NC)[C@H]2O[C@@]3(O)C(=O)C[C@@H](C)O[C@H]3O[C@@H]2[C@H]1O.Cl.Cl.O.O.O.O.O,Percentage of motility inhibition 0 h,[1],16%
same,Percentage of motility inhibition 24 h,[2],2%
C[C@@H]1O[C@@H](O[C@@H]2[C@@H](O)[C@H](O[C@H]3CC[C@]4(C)[C@H]5CC=C6[C@@H]7CC(C)(C)CC[C@]7(C(=O)O[C@@H]7O[C@H](CO)[C@@H](O)[C@H](O)[C@H]7O)CC[C@@]6(C)[C@]5(C)CC[C@H]4C3(C)C)O[C@H](C(=O)O)[C@H]2O)[C@H](O)[C@H](O)[C@H]1O,Percentage of motility inhibition 0 h,[1],6%
same,Percentage of motility inhibition 24 h,[2],0%
Nc1ccc(C(=O)[O-])c(O)c1.O.O.[Na+],Percentage of motility inhibition 0 h,[1],24%
same,Percentage of motility inhibition 24 h,[2],6%
4'‐O‐Methylbavachalcone,Percentage of motility inhibition 0 h,[1],19%
same,Percentage of motility inhibition 24 h,[2],3%
Nc1nc(=O)c2c([nH]1)NCC(CNc1ccc(C(=O)N[C@@H](CCC(=O)O)C(=O)O)cc1)N2C=O (mixture of isomers) [Folinic acid],Percentage of motility inhibition 0 h,[1],11%
same,Percentage of motility inhibition 24 h,[2],20%
COc1ccc([C@@H]2CC(=O)c3c(O)cc(O)cc3O2)cc1O (racemic) [(Rac)‐Hesperetin],Percentage of motility inhibition 0 h,[1],0%
same,Percentage of motility inhibition 24 h,[2],0%
COc1cc(C2Oc3ccc(-c4cc(=O)c5c(O)cc(O)cc5o4)cc3OC2CO)ccc1O (racemic) [(Rac)‐Hydnocarpin],Percentage of motility inhibition 0 h,[1],7%
same,Percentage of motility inhibition 24 h,[2],0%
c1cncc([C@@H]2CCCCN2)c1 (racemic) [(±) Anabasine],Percentage of motility inhibition 0 h,[1],3%
same,Percentage of motility inhibition 24 h,[2],0%
CN1c2ccccc2C(=O)N2CCc3c([nH]c4ccccc34)[C@@H]21 (racemic) [(±)‐Evodiamine],Percentage of motility inhibition 0 h,[1],0%
same,Percentage of motility inhibition 24 h,[2],12%
Cl.c1cc2c(c3c1CC1c4cc5c(cc4CCN1C3)OCO5)OCO2 (racemic) [(±)‐Stylopine (hydrochloride)],Percentage of motility inhibition 0 h,[1],0%
same,Percentage of motility inhibition 24 h,[2],3%
c1cc2c(c3c1C[C@H]1c4cc5c(cc4CCN1C3)OCO5)OCO2 (racemic) [(±)‐Stylopine],Percentage of motility inhibition 0 h,[1],0%
same,Percentage of motility inhibition 24 h,[2],31%
O[C@H]1CCN2Cc3ccccc3N=C12 (racemic) [(±)‐Vasicine],Percentage of motility inhibition 0 h,[1],3%
same,Percentage of motility inhibition 24 h,[2],31%
NC(N)=NCCCC(N)C(=O)O (racemic) [DL-Arginine],Percentage of motility inhibition 0 h,[1],4%
same,Percentage of motility inhibition 24 h,[2],0%
OC[C@@H](O)[C@@H](O)[C@H](O)[C@H](O)CO (racemic) [DL-Mannitol],Percentage of motility inhibition 0 h,[1],0%
same,Percentage of motility inhibition 24 h,[2],15%
CC1CCC(C(C)C)C(O)C1 (racemic) [DL-Menthol],Percentage of motility inhibition 0 h,[1],27%
same,Percentage of motility inhibition 24 h,[2],0%
O=C[C@H](O)[C@@H](O)[C@H](O)CO (racemic) [DL-Xylose],Percentage of motility inhibition 0 h,[1],0%
same,Percentage of motility inhibition 24 h,[2],5%
Cc1c(C)c2c(c(C)c1O)CCC(C)(CCCC(C)CCCC(C)CCCC(C)C)O2 (racemic) [DL-alpha-Tocopherol],Percentage of motility inhibition 0 h,[1],5%
same,Percentage of motility inhibition 24 h,[2],9%
O=C(Nc1ccccc1F)N[C@H]1N=C(c2ccccc2)c2ccccc2NC1=O (racemic) [RSV604 (racemate)],Percentage of motility inhibition 0 h,[1],23%
same,Percentage of motility inhibition 24 h,[2],13%
CN1[C@H]2C[C@H](OC(=O)[C@H](CO)c3ccccc3)C[C@@H]1[C@@H](O)C2 (racemic) [Racanisodamine],Percentage of motility inhibition 24 h,[2],0% and 6%
"COC1=CC(=O)OC(/C=C/c2ccccc2)C1 (single isomer, unassigned; (+)) [(+)-Kavain]",Percentage of motility inhibition 0 h,[1],5%
same,Percentage of motility inhibition 24 h,[2],13%
"CC1(C)C(=O)[C@]2(C)CCC1C2 (single isomer, unassigned; (-)) [(-)-Fenchone]",Percentage of motility inhibition 0 h,[1],26%
same,Percentage of motility inhibition 24 h,[2],22%
"CC1CCC(C(C)C)C(O)C1 (single isomer, unassigned; (-)) [(-)-Menthol]",Percentage of motility inhibition 0 h,[1],7% and 6%
C[C@H]1O[C@@H](O[C@@H]2CC[C@@]3(C)[C@@H](CC[C@]4(C)[C@@H]3C=C[C@]35OC[C@@]6(CCC(C)(C)C[C@H]63)[C@@H](O)C[C@]54C)[C@@]2(C)CO)[C@H](O)[C@@H](O)[C@H]1O (stereo in doubt) [Prosaikogenin G],Percentage of motility inhibition 0 h,[1],2%
same,Percentage of motility inhibition 24 h,[2],34%
CC=C1[C@H](O[C@@H]2O[C@H](CO)[C@@H](O)[C@H](O)[C@H]2O)OC=C(C(=O)OC)[C@H]1CC(=O)OC[C@H]1O[C@@H](OCCc2ccc(O)cc2)[C@H](O)[C@@H](O)[C@@H]1O (stereo in doubt) [Specneuzhenide],Percentage of motility inhibition 0 h,[1],3%
same,Percentage of motility inhibition 24 h,[2],31%
CC=C1[C@H](O[C@@H]2O[C@H](CO)[C@@H](O)[C@H](O)[C@H]2O)OC=C(C(=O)OC)[C@H]1CC(=O)OC[C@H]1O[C@@H](OCCc2ccc(O)cc2)[C@H](O)[C@@H](O)[C@@H]1O (stereo in doubt) [Specnuezhenide],Percentage of motility inhibition 0 h,[1],1%
same,Percentage of motility inhibition 24 h,[2],13%
"Cc1ccn(C)n1 [1,3‐Dimethylpyrazole]",Percentage of motility inhibition 0 h,[1],6%
same,Percentage of motility inhibition 24 h,[2],3%
CCCCCCCCCCCCCCCCCCCCCCO [1-Docosanol],Percentage of motility inhibition 0 h,[1],7%
same,Percentage of motility inhibition 24 h,[2],8%
c1cn[nH]c1 [1H‐pyrazole],Percentage of motility inhibition 0 h,[1],0%
same,Percentage of motility inhibition 24 h,[2],21%
"CC(C)C1=CC2C(CCC2(C)O)C(C)(O)CC1 (stereo not drawn) [1αH,5αH-Guaia-6-ene-4β,10β-diol]",Percentage of motility inhibition 0 h,[1],0%
same,Percentage of motility inhibition 24 h,[2],27%
O=C(/C=C/c1ccc(O)c(O)c1)OC1(C(=O)O)C[C@@H](O)C(O)[C@H](O)C1 (stereo partly drawn) [1‐Caffeoylquinic acid],Percentage of motility inhibition 0 h,[1],24%
same,Percentage of motility inhibition 24 h,[2],0%
Cl.OC[C@H]1NC[C@@H](O)[C@@H](O)[C@@H]1O [1‐Deoxymannojirimycin (hydrochloride)],Percentage of motility inhibition 0 h,[1],32%
same,Percentage of motility inhibition 24 h,[2],11%
Cn1cnc2c(ncn2[C@@H]2O[C@H](CO)[C@@H](O)[C@H]2O)c1=N [1‐Methyladenosine],Percentage of motility inhibition 0 h,[1],7%
same,Percentage of motility inhibition 24 h,[2],0%
CCCCCc1cc(=O)c2ccccc2n1C [1‐Methyl‐2‐pentyl‐4(1H)‐quinolinone],Percentage of motility inhibition 0 h,[1],44%
same,Percentage of motility inhibition 24 h,[2],30%
"O=C(O[C@H]1[C@H](Oc2c(-c3ccc(O)c(O)c3)oc3cc(O)cc(O)c3c2=O)O[C@H](CO)[C@H](O)[C@@H]1O)c1cc(O)c(O)c(O)c1 [2""‐O‐Galloylhyperin]",Percentage of motility inhibition 0 h,[1],32%
same,Percentage of motility inhibition 24 h,[2],1%
"O=c1cc(-c2ccc(O)c(O)c2)oc2c(C3OC(CO)C(O)C(O)C3OC3OC(CO)C(O)C(O)C3O)c(O)cc(O)c12 (stereo not drawn) [2""‐O‐beta‐L‐galactopyranosylorientin]",Percentage of motility inhibition 0 h,[1],7%
same,Percentage of motility inhibition 24 h,[2],0%
COc1ccc(-c2oc3c(CC=C(C)C)c(O)cc(O)c3c(=O)c2O[C@@H]2O[C@@H](C)[C@H](O)[C@@H](O)[C@H]2O[C@@H]2O[C@@H](C)[C@H](O)[C@@H](O)[C@H]2O)cc1 [2''‐O‐Rhamnosylicariside II],Percentage of motility inhibition 0 h,[1],0%
same,Percentage of motility inhibition 24 h,[2],13%
CC(=O)c1ccccc1O [2'‐Hydroxyacetophenone],Percentage of motility inhibition 0 h,[1],0%
same,Percentage of motility inhibition 24 h,[2],1%
"c1ccc2c(Cc3[nH]c4ccccc4c3Cc3c[nH]c4ccccc34)c[nH]c2c1 [2,3‐Bis(3‐indolylmethyl)indole]",Percentage of motility inhibition 0 h,[1],21%
same,Percentage of motility inhibition 24 h,[2],9%
"CCCCCC(=O)Oc1c(Br)cc(Br)cc1Br [2,4,6‐Tribromophenyl caproate]",Percentage of motility inhibition 0 h,[1],48%
same,Percentage of motility inhibition 24 h,[2],57%
"Cc1ccc2nc(C)ccc2c1 [2,6‐Dimethylquinoline]",Percentage of motility inhibition 0 h,[1],0%
same,Percentage of motility inhibition 24 h,[2],6%
OCc1ccc(O)cn1 [2‐Hydroxymethyl‐5‐hydroxypyridine],Percentage of motility inhibition 0 h,[1],0%
same,Percentage of motility inhibition 24 h,[2],0%
COc1ccc(-c2cc(=O)c3c(OC)c(OC)c(OC)c(OC)c3o2)cc1O [3'‐Demethylnobiletin],Percentage of motility inhibition 0 h,[1],0%
same,Percentage of motility inhibition 24 h,[2],0%
O=c1c(-c2ccc(O)c(O)c2)coc2c([C@@H]3O[C@H](CO)[C@@H](O)[C@H](O)[C@H]3O)c(O)ccc12 [3'‐Hydroxypuerarin],Percentage of motility inhibition 0 h,[1],1%
same,Percentage of motility inhibition 24 h,[2],0%
COc1cccc(-c2oc3ccccc3c(=O)c2O)c1 [3'‐Methoxyflavonol],Percentage of motility inhibition 0 h,[1],9%
same,Percentage of motility inhibition 24 h,[2],0%
